Each structure is given as a SMILES string. Converted amounts (≈) assume the structure as drawn. The source made the active and inactive calls. No cut-off for these calls is given here.

For data set [1], the system named is Enterococcus faecium. Kind of data set: Antimicrobial activity against vancomycin-resistant Enterococcus faecium. The format is functional, organism-based.
The test system of data set [2] is Staphylococcus aureus. In words: Antimicrobial activity against methicillin-resistant Staphylococcus aureus. In kind it is functional, organism-based.
For data set [3], the system named is Candida albicans. In words: Antimicrobial activity against amphotericin-resistant Candida albicans. In kind it is functional, organism-based.
The nature of data set [4]: Inhibition of TNF-induced NF-kappaB activation transfected in HEK293 cells by luciferase reporter gene assay. The format is cell-based. (In general: Reporter assays use an easily measured gene product as a stand-in for the process of interest.)
Data set [5] concerns RAW264.7. Kind of data set: Antiinflammatory activity in mouse RAW264.7 cells assessed as inhibition of LPS-stimulated PGE2 production at 3 to 10 uM treated 30 mins prior to LPS challenge measured after 24 hrs by ELISA. Further details: scale not given: the % may be the effect or the level left. The format is functional. (In an ELISA, binding on a coated surface is turned into a signal by an enzyme label.)

The subject of data set [6] is HCT-116. Kind of data set: Cytotoxicity against human HCT116 cells. The format is functional, cell-based.
Data set [7] relates to RAW264.7. In words: Antiinflammatory activity in mouse RAW264.7 cells assessed as inhibition of LPS-stimulated nitric oxide production at 3 to 10 uM treated 30 mins prior to LPS challenge measured after 24 hrs by Griess reagent method. In kind it is functional. More on the design: scale not given: the % may be the effect or the level left. On the technique in general: The Griess reaction detects nitrite, a stable product of nitric oxide.

Data set [8] has as its system RAW264.7. In words: Antiinflammatory activity in mouse RAW264.7 cells assessed as inhibition of LPS-stimulated nitric oxide production treated 30 mins prior to LPS challenge measured after 24 hrs by Griess reagent method. In kind it is functional, cell-based.
The test system of data set [9] is RAW264.7. In words: Cytotoxicity against mouse RAW264.7 cells at 3 to 10 uM by sulforhodamine B assay. The format is cell-based. The following applies: raw264.7, 10 µM.

For the compound `CCCCCC[C@@H](C)[C@H](O)CC(=O)NCC(=O)N[C@H](C(=O)C[C@@H](CC(C)C)C(=O)N[C@@H](C)C(=O)N[C@@H](Cc1ccccc1)C(=O)OC)C(C)C`, the result in [1], in [2] and in data set [3] was inactive.

As for `CCCCCC[C@H](C)[C@@H]1CC(=O)NCC(=O)N[C@@H](C(C)C)C(=O)N[C@@H](CC(C)C)C(=O)N[C@@H](C)C(=O)N[C@@H](CCSC)C(=O)O1`, the outcome in data set [1], in data set [2] and in data set [3] was inactive.

For the compound `CCCCCC[C@H](C)[C@@H]1CC(=O)NCC(=O)N[C@@H](C(C)C)C(=O)N[C@@H](CC(C)C)C(=O)N[C@@H](C)C(=O)N[C@@H](Cc2ccccc2)C(=O)O1` [ARENAMIDE A], the result in data set [1], in [2] and in [3] was inactive. The values for the half-inhibitory concentration (IC50) in [4] and in data set [6] were 3700 nM and 13.2 µg/mL (≈ 19.6 µM), respectively. Further, the Activity is 50% in data set [5], 35% in data set [7], “Dose-dependent effect” in data set [8] and “Non-toxic” in data set [9].

Take `CCCC[C@H](C)[C@@H]1CC(=O)NCC(=O)N[C@@H](C(C)C)C(=O)N[C@@H](CC(C)C)C(=O)N[C@@H](C)C(=O)N[C@@H](Cc2ccccc2)C(=O)O1` [ARENAMIDE B]: the outcome in [1], in [2] and in [3] was inactive. Moreover, the 50% inhibitory concentration (IC50) (usually the concentration needed to halve the response being measured) in [4] is 1700 nM; in [6], 19.2 µg/mL (≈ 29.8 µM). In addition, the Activity is 50% in [5], 35% in data set [7], “Dose-dependent effect” in data set [8] and “Non-toxic” in [9].
